According to patent US20230243822A1, “MOLECULAR DISEASE PROFILE AND USE THEREOF FOR MONITORING AND TREATING RHEUMATAOID ARTHRITIS” (JANSSEN BIOTECH, INC., priority 2020, published 2023):

Assays:
[1] = test system: 14-analyte M-DP panel; assay: Pharmacodynamic M-DP score, 14-analyte panel (SomaLogic SOMAscan), clinical studies in RA; assay type: in vivo, human; conditions: for M-DP score mean difference ± SD, Good vs. No / M-DP score mean ± SD, DAS28-CRP response group Good / M-DP score mean ± SD, DAS28-CRP response group Moderate / M-DP score mean ± SD, DAS28-CRP response group No: response at week 24
From the text: (§1) Serum samples and data from eight interventional clinical studies with seven different active treatments for RA or placebo treatment were obtained and analyzed: sirukumab (anti-IL-6) and placebo treatments in SIRROUND-M (NCT01689532; Takeuchi T, et al. Arthritis Res Ther. 2018 Mar. 7; 20(1): 42), SIRROUND-D (NCT01604343; Takeuchi T, et al. Ann Rheum Dis. 2017 Dec.; 76(12): 2001-2008), and SIRROUND-T (NCT01606761; Aletaha D, et al. Lancet. 2017 Mar. 25; 389(10075): 1206-1217); sirukumab and adalimumab (anti-TNF-alpha) treatments in SIRROUND-H (NCT02019472; Taylor PC, et al. Ann Rheum Dis. 2018 May; 77(5): 658-666); golimumab (anti-TNF-alpha) treatment in GO-FURTHER (NCT00973479; Weinblatt ME, et al. Ann Rheum Dis. 2013 March; 72(3): 381-9); guselkumab (anti-IL-23p19), ustekinumab (anti-IL-12/IL-23p40), and placebo treatments in CNTO1275ARA2001 (NCT01645280; Cox JD, et al. […]); JNJ-40346527 (colony-stimulating factor-1 inhibitor) and placebo treatments in 40346527ARA2001 (NCT01597739; Genovese MC, et al. J Rheumatol. 2015 October; 42(10): 1752-60). Plasma samples were obtained from the RA-MAP TACERA study (Cope AP, et al. Nat Rev Rheumatol. 2018 January; 14(1): 53-60) before (baseline) and 6-months after initiation of conventional synthetic disease-modifying anti-rheumatic drugs (csDMARDs). Details of treatment dose groups, concomitant methotrexate use, and previous experience with csDMARDs and biologics are reported in Table 1. The studies were conducted in accordance with the Declaration of Helsinki. The study protocols were reviewed and approved by an independent ethics committee or institutional review board for each study center. Written informed consent was obtained from all patients before study entry. Additional study details and patient characteristics are available in the referenced publications for each study. For SIRROUND-D and SIRROUND-T studies, sets of serum samples from demographically-matched healthy controls were obtained from commercial sources (BioIVT, Westbury, N.Y.).
(§2) Serum samples from baseline (week 0) and the time points indicated in Table 1 were provided for quantification of 1189 serum analytes using the SomaScan v3.1 platform (SomaLogic, Boulder, Colo.; www.somalogic.com), with the exception of RA-MAP TACERA, for which plasma samples were analyzed for 1301 analytes using the SomaScan v3.2 platform. For some studies, a redacted dataset reporting data for a subset of the analytes was obtained. Relative fluorescence unit (RFU) data were sequentially normalized for hybridization controls (internal standards per samples), median signal across all samples (assumes same total protein concentration across sample set), and calibration controls (common sample standards across analysis plates). Samples failed quality control standards defined by Somalogic were excluded from analyses. The normalized RFU values were log2-transformed for subsequent analyses.
(§3) Changes in analyte expression levels were calculated for individual samples as the log2 transform of the ratio of the analyte level at the indicated time point (visit level) over the analyte level at baseline (baseline level) for a given subject, i.e., log 2(visit level/baseline level). Changes in RA disease-associated analytes per sample were summarized using a pharmacodynamic (PD) molecular disease profile (M-DP) score, defined as the median value of the log 2(visit level/baseline level) values for analytes in the defined M-DP analyte set. […] PD M-DP scores in the log 2(visit level/baseline level) scale can be transformed to percent change from baseline, using the transformation: (2^M-DP score−1)×100%.
Statistical analyses were performed on log2-transformed data, for either normalized Relative fluorescence unit (RFU) datasets or within-subject fold/baseline datasets. Significance of differences between groups was evaluated using General Linear Models, with t-tests when comparing two groups. […]

[2] = test system: 4-analyte M-DP panel (CRP, CXCL10, CXCL13, SAA); assay: Pharmacodynamic M-DP score, 4-analyte panel CRP, CXCL10, CXCL13, SAA (SOMAscan), clinical studies in RA; assay type: in vivo, human; conditions: 4-analyte; for M-DP score mean difference ± SD, Good vs. No / M-DP score mean ± SD, DAS28-CRP response group Good / M-DP score mean ± SD, DAS28-CRP response group Moderate / M-DP score mean ± SD, DAS28-CRP response group No: response at week 24
From the text: as §1, §2, §3
In selecting the best minimal set of analytes that performs similarly to the full 14-analyte set, analyte sets that results in significant associations between DAS28-CRP EULAR good vs. no response with p<0.05 for each study were prioritized (Table 4). […]

[3] = test system: RA patients; conditions: RA patients; cited from earlier work
[4] = CNTO1275ARA2001, score at week 4, ustekinumab SC 90 mg or guselkumab SC 50 or 200 mg
[5] = CNTO1275ARA2001, score at week 28, ustekinumab SC 90 mg or guselkumab SC 50 or 200 mg
[6] = SIRROUND-H, score at week 4, sirukumab SC 50 mg q4w or adalimumab SC 40 mg q2w

guselkumab [reference compound]
M-DP score mean ± SD, All treated [1, 4]: −0.01 ± 0.19 log2 (fold/baseline) | M-DP score mean difference ± SD, Good vs. No [1, 4]: 0.00 ± 0.19 log2 (fold/baseline) | M-DP score mean ± SD, DAS28-CRP response group Good [1, 4]: −0.04 ± 0.19 log2 (fold/baseline) | M-DP score mean ± SD, DAS28-CRP response group Moderate [1, 4]: 0.02 ± 0.20 log2 (fold/baseline) | M-DP score mean ± SD, DAS28-CRP response group No [1, 4]: −0.04 ± 0.19 [12] log2 (fold/baseline) | M-DP score mean ± SD, All treated [1, 5]: −0.03 ± 0.26 log2 (fold/baseline) | M-DP score mean difference ± SD, Good vs. No [1, 5]: −0.03 ± 0.21 log2 (fold/baseline) | M-DP score mean ± SD, DAS28-CRP response group Good [1, 5]: −0.08 ± 0.10 log2 (fold/baseline) | M-DP score mean ± SD, DAS28-CRP response group Moderate [1, 5]: 0.01 ± 0.34 log2 (fold/baseline) | M-DP score mean ± SD, DAS28-CRP response group No [1, 5]: −0.05 ± 0.25 [12] log2 (fold/baseline) | GMean M-DP scores, change ([1]; week 4 or latest time point evaluated (weeks 28, 28, and 12, respectively)): not decreased | M-DP score mean ± SD, All treated [2, 4]: −0.12 ± 0.39 log2 (fold/baseline) | M-DP score mean difference ± SD, Good vs. No [2, 4]: −0.11 ± 0.33 (0.4781) log2 (fold/baseline) | M-DP score mean ± SD, DAS28-CRP response group Good [2, 4]: −0.19 ± 0.30 log2 (fold/baseline) | M-DP score mean ± SD, DAS28-CRP response group Moderate [2, 4]: −0.11 ± 0.49 log2 (fold/baseline) | M-DP score mean ± SD, DAS28-CRP response group No [2, 4]: −0.08 ± 0.35 log2 (fold/baseline) | M-DP score mean ± SD, All treated [2, 5]: −0.07 ± 0.37 log2 (fold/baseline) | M-DP score mean difference ± SD, Good vs. No [2, 5]: −0.12 ± 0.38 (0.5645) log2 (fold/baseline) | M-DP score mean ± SD, DAS28-CRP response group Good [2, 5]: −0.12 ± 0.38 log2 (fold/baseline) | M-DP score mean ± SD, DAS28-CRP response group Moderate [2, 5]: −0.10 ± 0.39 log2 (fold/baseline) | M-DP score mean ± SD, DAS28-CRP response group No [2, 5]: −0.01 ± 0.38 log2 (fold/baseline) | clinical efficacy in the underlying clinical studies [3]: not clinically efficacious

adalimumab [reference compound]
M-DP score decrease ([1]; SIRROUND-H, 4-week treatment, adalimumab SC 40 mg q2w): 12% | M-DP score mean ± SD, All treated [1, 6]: −0.18 ± 0.33 log2 (fold/baseline) | M-DP score mean difference ± SD, Good vs. No [1, 6]: −0.06 ± 0.33 log2 (fold/baseline) | M-DP score mean ± SD, DAS28-CRP response group Good [1, 6]: −0.22 ± 0.37 log2 (fold/baseline) | M-DP score mean ± SD, DAS28-CRP response group Moderate [1, 6]: −0.17 ± 0.33 log2 (fold/baseline) | M-DP score mean ± SD, DAS28-CRP response group No [1, 6]: −0.14 ± 0.26 [23] * log2 (fold/baseline) | M-DP score mean ± SD, All treated [2, 6]: −0.43 ± 0.53 log2 (fold/baseline) | M-DP score mean difference ± SD, Good vs. No [2, 6]: −0.29 ± 0.45 (0.0217) log2 (fold/baseline) | M-DP score mean ± SD, DAS28-CRP response group Good [2, 6]: −0.58 ± 0.50 log2 (fold/baseline) | M-DP score mean ± SD, DAS28-CRP response group Moderate [2, 6]: −0.39 ± 0.59 log2 (fold/baseline) | M-DP score mean ± SD, DAS28-CRP response group No [2, 6]: −0.29 ± 0.37 log2 (fold/baseline) | M-DP score decrease ([2]; adalimumab, week 4): 26% | M-DP score effect size (decrease below zero) ([2]; week 4): 0.8 standard deviations
